The record followed here is ChEMBL document CHEMBL5329182, “Design, Synthesis, anti-inflammatory activity Evaluation, preliminary exploration of the Mechanism, molecule Docking, and structure-activity relationship analysis of batatasin III analogs” (Bioorg Med Chem Lett, 2023).

A value given as a limit tells only on which side of the number the result lay.

The test system of series [1] is RAW264.7. In words: Antiinflammatory activity against LPS-stimulated mouse RAW264.7 cells assessed as NO emission at 50 uM (reference value: 20.56 +/-0.06%). Format: functional.
Series [2] can be described thus: Cytotoxicity against mouse RAW264.7 cells assessed as cell survival rate at 50 uM by MTT assay relative to control. Format: toxicity, cell-based. Conditions: read-out: Activity. (In general: Formazan colour is commonly taken as a measure of viable cells.)
Series [3] concerns RAW264.7. In words: Antiinflammatory activity against mouse RAW264.7 cells assessed as inhibition of NO release. Format: functional, cell-based.
In series [4] the test system is RAW264.7. In words: Antiinflammatory activity against mouse RAW264.7 cells assessed as inhibition of NO production at 50 uM relative to control. The series is classed as functional.
For series [5], the system named is RAW264.7. In words: Antiinflammatory activity against LPS-stimulated mouse RAW264.7 cells assessed as reduction in beta-catenin protein expression by Western blot analysis. Format: functional, cell-based. Conditions: dose 5-20 µM. A general note: In western blotting, separated proteins are transferred to a membrane and probed.
Series [6] relates to RAW264.7. The series can be described thus: Antiinflammatory activity against LPS-stimulated mouse RAW264.7 cells assessed as NO emission at 20 uM (reference value: 20.56 +/-0.06%). Format: functional.
The nature of series [7]: Cytotoxicity against mouse RAW264.7 cells assessed as reduction in cell survival by MTT assay. The series is classed as toxicity, cell-based.
In series [8] the target is Transcription factor p65 (Mus musculus) (UniProt Q04207). The series can be described thus: Inhibition of p65 phosphorylation in LPS-stimulated mouse RAW264.7 cells by Western blot analysis. The series is classed as cell-based. To be noted: dose 5-20 µM.
Transcription factor p65 (Mus musculus), sequence (Q04207 whole entry): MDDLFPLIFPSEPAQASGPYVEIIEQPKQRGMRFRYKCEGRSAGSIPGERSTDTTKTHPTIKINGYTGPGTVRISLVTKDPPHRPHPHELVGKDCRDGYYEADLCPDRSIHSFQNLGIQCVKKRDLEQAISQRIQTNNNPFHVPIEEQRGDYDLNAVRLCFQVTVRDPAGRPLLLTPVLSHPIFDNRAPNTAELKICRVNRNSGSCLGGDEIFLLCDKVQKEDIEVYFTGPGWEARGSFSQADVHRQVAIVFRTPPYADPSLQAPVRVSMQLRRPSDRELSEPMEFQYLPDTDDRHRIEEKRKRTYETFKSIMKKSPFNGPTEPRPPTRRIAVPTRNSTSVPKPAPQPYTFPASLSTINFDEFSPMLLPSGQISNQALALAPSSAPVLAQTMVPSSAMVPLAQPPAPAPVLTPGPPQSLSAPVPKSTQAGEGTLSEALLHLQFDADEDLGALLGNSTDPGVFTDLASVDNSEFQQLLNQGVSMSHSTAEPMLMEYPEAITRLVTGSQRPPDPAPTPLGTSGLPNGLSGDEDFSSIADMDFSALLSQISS
Series [9] is described as follows: Cytotoxicity against mouse RAW264.7 cells assessed as cell survival rate at 20 uM by MTT assay relative to control. The series is classed as toxicity, cell-based. Conditions: read-out: Activity.
The subject of series [10] is RAW264.7. In words: Antiinflammatory activity against mouse RAW264.7 cells assessed as inhibition of NO production at 20 uM relative to control. Format: functional.
Series [11] relates to RAW264.7. The series can be described thus: Antiinflammatory activity against LPS-stimulated mouse RAW264.7 cells assessed as reduction in iNOS protein expression by Western blot analysis. Format: functional, cell-based. Conditions: dose 5-20 µM.

A word on the IC50: it is the midpoint of a concentration-inhibition curve. In general, inhibition refers to the change of the read-out against control, counted positive when it falls. For the molecule `Oc1cccc(CCc2cc(O)cc(O)c2)c1`, the Activity in [1] amounted to 14.12 µM. Further, the viability at 50 µM in series [2] was 110%. Further, the IC50 in [3] was found to be 48.2 µM. Also, in [4], the inhibition at 50 µM came out at 31.4%.
As to `COc1cc(/C=C/c2ccc(C(C)(C)C)cc2)cc(OC)c1`, the Activity in [1] was 17.68 µM. In addition, the viability at 50 µM in series [2] amounted to 99.3%. Further, the IC50 in [3] is more than 50 µM. In addition, the inhibition at 50 µM in series [4] was 14%.
For `O=[N+]([O-])c1cccc(/C=C/c2cc(O)cc(O)c2)c1` the same measures were 15.32 µM, 104%, 44.5 µM and 25.5%.
Consider `COc1cc(/C=C/c2cccc(C(F)(F)F)c2)cc(OC)c1`, for which the Activity in series [1] is 17.66 µM. Also, the viability at 50 µM in series [2] is 109%. Also, the IC50 in series [3] was more than 50 µM. In [4], the inhibition at 50 µM was 14.1%.
As for `COc1cc(CCc2cccc(C)c2)cc(OC)c1`, in [1], the Activity was 16.28 µM. Further, in series [2], the viability at 50 µM turned out to be 109%. Moreover, the IC50 in series [3] was determined as 58.3 µM. Besides, the inhibition at 50 µM in series [4] was 20.9%.
Taken in the same sequence, the figures for `COc1cc(CCc2ccccc2)cc(OC)c1` were 19.3 µM, 99.5%, more than 50 µM and 6.16%.
In the case of `COc1cc(/C=C/c2cccc(C#N)c2)cc(OC)c1`, the Activity in series [1] was 18.22 µM. Moreover, the viability at 50 µM in series [2] was 114%. Besides, in [3], the IC50 is more than 50 µM. Also, in [4], the inhibition at 50 µM turned out to be 11.4%.
For `COc1cc(/C=C/c2cccc([N+](=O)[O-])c2)cc(OC)c1` the same measures were 17.5 µM, 104%, more than 50 µM and 14.9%.
For `Oc1cccc(/C=C/c2cc(O)cc(O)c2)c1`, the Activity in [1] is 15.88 µM. The viability at 50 µM in [2] worked out at 110%. The IC50 in series [3] turned out to be 54 µM. Further, the inhibition at 50 µM in series [4] came to 22.8%.
With `Oc1cc(O)cc(CCc2ccccc2)c1` [DIHYDROPINOSYLVIN], in series [1], the Activity was 16.86 µM. Also, the viability at 50 µM in series [2] turned out to be 102%. Also, the IC50 in series [3] is more than 50 µM. Further, the inhibition at 50 µM in series [4] was determined as 18%.
As for `COc1cc(CCc2ccco2)cc(OC)c1`, the Activity in series [1] was found to be 21.18 µM. Also, in series [2], the viability at 50 µM was determined as 103%. Moreover, the IC50 in series [3] was more than 50 µM. For the same molecule, in [4], the inhibition at 50 µM was -2.98%.
With `COc1cc(CCc2ccc(C(C)(C)C)cc2)cc(OC)c1`, in series [1], the Activity turned out to be 17.5 µM. The viability at 50 µM in series [2] is 106%. In addition, the IC50 in [3] was more than 50 µM. In [4], the inhibition at 50 µM was 14.9%.
Consider `COc1cccc(/C=C/c2cc(OC)cc(OC)c2)c1`, for which the Activity in series [1] amounted to 16.82 µM. The viability at 50 µM in series [2] was 97.2%. Besides, the IC50 in [3] was more than 50 µM. In [4], the inhibition at 50 µM amounted to 18.2%.
In the case of `COc1cc(CCc2cccc(C(F)(F)F)c2)cc(OC)c1`, the Activity in series [1] was 16.54 µM. The viability at 50 µM in [2] was found to be 103%. Moreover, the IC50 in series [3] was more than 50 µM. In addition, in [4], the inhibition at 50 µM was 19.6%.
In the case of `COc1cc(/C=C/c2cccnc2)cc(OC)c1`, the Activity in series [1] was 15.94 µM. Besides, in [2], the viability at 50 µM is 97.7%. The IC50 in series [3] was more than 50 µM. In addition, the inhibition at 50 µM in series [4] worked out at 22.5%.
`Oc1cc(O)cc(CCc2cccnc2)c1`: the Activity in series [1] came to 18.06 µM. In [2], the viability at 50 µM came to 98.9%. Moreover, the IC50 in [3] was more than 50 µM. Moreover, the inhibition at 50 µM in series [4] was found to be 12.2%.
Regarding `CC(C)(C)c1ccc(CCc2cc(O)cc(O)c2)cc1`, the Activity in [1] amounted to 9.74 µM. The viability at 50 µM in series [2] came to 106%. Besides, the IC50 in [3] amounted to 23.7 µM. In addition, in [4], the inhibition at 50 µM was 52.6%.
Turning to `COc1cc(CCc2cccc(N)c2)cc(OC)c1`, in series [1], the Activity turned out to be 15.2 µM. Also, in [2], the viability at 50 µM was found to be 104%. The IC50 in series [3] was determined as 55.4 µM. Moreover, the inhibition at 50 µM in [4] came to 26.1%.
Taken in the same sequence, the figures for `COc1cc(/C=C/c2cccc(Cl)c2)cc(OC)c1` were 18.96 µM, 97.8%, more than 50 µM and 7.82%.
The CC50 is the concentration that lowers cell viability or growth by half. With `CC(C)(C)c1cc(CCc2cc(O)cc(O)c2)cc(C(C)(C)C)c1`, the Activity result in series [5] was “Dose-Dependent Effect”; in series [6], 10.08 µM; in series [11], “Dose-Dependent Effect”. In addition, in [7], the CC50 came out at 34.3 µM. The inhibition result in series [8] is “Dose-Dependent Effect”. Besides, the IC50 in [3] amounted to 13 µM. In addition, in [9], the viability at 20 µM was found to be 99.1%. Moreover, the inhibition at 20 µM in series [10] came out at 51%.
For `COc1cc(CCc2cccc(C#N)c2)cc(OC)c1`, the Activity in series [1] worked out at 21.8 µM. Moreover, the viability at 50 µM in series [2] came to 105%. Further, the IC50 in series [3] was more than 50 µM. The inhibition at 50 µM in series [4] is -5.99%.
With `COc1cc(O)cc(CCc2cccc(O)c2)c1` [BATATASIN III], in series [1], the Activity is 16.14 µM. For the same molecule, in [2], the viability at 50 µM stood at 106%. Also, in series [3], the IC50 was more than 50 µM. For the same molecule, the inhibition at 50 µM in series [4] was found to be 21.5%.
Turning to `C[C@@H]1C[C@H]2[C@@H]3CCC4=CC(=O)C=C[C@]4(C)[C@@]3(F)[C@@H](O)C[C@]2(C)[C@@]1(O)C(=O)CO` [DEXAMETHASONE], the Activity in series [1] was 15.05 µM. The viability at 50 µM in series [2] came out at 107%. Further, the IC50 in series [3] is more than 50 µM. In addition, the inhibition at 50 µM in [4] was 26.9%.
For `COc1cc(CCc2cccnc2)cc(OC)c1`, the Activity in [1] is 17.72 µM. In addition, in [2], the viability at 50 µM amounted to 97.8%. Also, the IC50 in series [3] is more than 50 µM. In addition, the inhibition at 50 µM in series [4] worked out at 13.8%.
For the molecule `COc1cc(CCc2cc(C(C)(C)C)cc(C(C)(C)C)c2)cc(OC)c1`, the Activity in series [1] amounted to 16.82 µM. Also, the viability at 50 µM in series [2] stood at 114%. The IC50 in series [3] was more than 50 µM. Besides, in series [4], the inhibition at 50 µM was 18.2%.
For `COc1cc(/C=C/c2cc(C(C)(C)C)cc(C(C)(C)C)c2)cc(OC)c1`, in series [1], the Activity worked out at 17.02 µM. Further, the viability at 50 µM in [2] stood at 104%. The IC50 in [3] is more than 50 µM. In addition, the inhibition at 50 µM in series [4] was found to be 17.2%.
